Key:
Assay type in all cases: in vivo
[1] = tested on: diamondback moth (Plutella xylostella); assay: Insecticidal effect on diamondback moth (Test Example 1); conditions: diamondback moth; judged by the mortality criterion of Test Example 1
Method in brief: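 Triplicate groups of 10 insects: eggs laid on Chinese cabbage seedling by adults, seedling immersed then air-dried, kept at 25° C. Day-6 hatch counts gave mortality, rated by criterion.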

[2] = tested on: common cutworm (Spodoptera Litura); assay: Insecticidal effect on common cutworm (Test Example 2); conditions: 500 ppm; cabbage leaf immersed; second-instar larvae of common cutworm; eight days after inoculation; 25° C.
Method in brief: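 Air-dried treated material was placed in a closed dish with second-instar larvae and held at 25° C. Dead and live insects were counted eight days after inoculation, and mortality was calculated and scored against a fixed insecticidal-effect criterion. Three replicate groups of 10 insects were used.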

[3] = tested on: rice leafroller (Cnaphalocrocis medinalis); assay: Insecticidal effect on rice leafroller (Test Example 3); conditions: 500 ppm; rice lamina immersed; third-instar larvae of rice leafroller; four days after inoculation; 25° C., humidity 70%
Method in brief: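 Insecticidal effect is judged by a predefined criterion from dead/alive counts four days after infesting air-dried lamina with third-instar larvae, kept on moistened filter paper at 25° C, 70% humidity.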

Cc1cc(C(F)(F)C(F)(F)C(F)(F)C(F)(F)F)ccc1NC(=O)c1c(Br)cccc1C(=O)NC(C)C [compound 318]
Insecticidal effect, Test Example 1 [1]: A (100)
Insecticidal effect, Test Example 2 [2]: B (99-90)
Insecticidal effect, Test Example 3 [3]: A (100)

Cc1cc(OCC(F)(F)C(F)F)ccc1NC(=O)c1c(Br)cccc1C(=O)NC(C)C [compound 319]
Insecticidal effect, Test Example 1 [1]: A (100)
Insecticidal effect, Test Example 2 [2]: B (99-90)
Insecticidal effect, Test Example 3 [3]: B (99-90)

CC(C)NC(=O)c1cccc(Br)c1C(=O)Nc1ccc(OC(F)(F)F)cc1Cl [compound 323]
Insecticidal effect, Test Example 1 [1]: A (100)
Insecticidal effect, Test Example 2 [2]: C (89-80)
Insecticidal effect, Test Example 3 [3]: A (100)

Cc1cc(OC(F)F)ccc1NC(=O)c1c(Br)cccc1C(=O)NC(C)C [compound 325]
Insecticidal effect, Test Example 1 [1]: A (100)
Insecticidal effect, Test Example 2 [2]: A (100)
Insecticidal effect, Test Example 3 [3]: A (100)

Cc1cc(OC(F)(F)C(F)C(F)(F)F)ccc1NC(=O)c1c(Br)cccc1C(=O)NC(C)C (stereo not drawn) [compound 328]
Insecticidal effect, Test Example 1 [1]: A (100)
Insecticidal effect, Test Example 2 [2]: A (100)
Insecticidal effect, Test Example 3 [3]: A (100)

Cc1cc(OC(F)(F)C(F)Cl)ccc1NC(=O)c1c(Br)cccc1C(=O)NC(C)C (stereo not drawn) [compound 329]
Insecticidal effect, Test Example 1 [1]: A (100)
Insecticidal effect, Test Example 2 [2]: A (100)
Insecticidal effect, Test Example 3 [3]: A (100)

Cc1cc(Oc2cccc(C(F)(F)F)c2)ccc1NC(=O)c1c(Br)cccc1C(=O)NC(C)C [compound 334]
Insecticidal effect, Test Example 1 [1]: A (100)
Insecticidal effect, Test Example 2 [2]: C (89-80)
Insecticidal effect, Test Example 3 [3]: C (89-80)

Cc1cc(OC(F)F)ccc1NC(=O)c1ccc(Br)c(Br)c1C(=O)NC(C)C [compound 338]
Insecticidal effect, Test Example 1 [1]: A (100)
Insecticidal effect, Test Example 2 [2]: B (99-90)
Insecticidal effect, Test Example 3 [3]: A (100)

Cc1cc(Cl)ccc1NC(=O)c1ccc(Br)c(Br)c1C(=O)NC(C)C [compound 339]
Insecticidal effect, Test Example 1 [1]: A (100)
Insecticidal effect, Test Example 2 [2]: B (99-90)
Insecticidal effect, Test Example 3 [3]: A (100)

CC(C)NC(=O)c1c(I)cccc1C(=O)Nc1ccc(Cl)cc1 [compound 345]
Insecticidal effect, Test Example 1 [1]: A (100)
Insecticidal effect, Test Example 2 [2]: B (99-90)
Insecticidal effect, Test Example 3 [3]: A (100)

CC(C)NC(=O)c1c(I)cccc1C(=O)Nc1ccc(Br)cc1 [compound 346]
Insecticidal effect, Test Example 1 [1]: A (100)
Insecticidal effect, Test Example 2 [2]: C (89-80)
Insecticidal effect, Test Example 3 [3]: A (100)

CC(C)NC(=O)c1c(I)cccc1C(=O)Nc1ccc(I)cc1 [compound 347]
Insecticidal effect, Test Example 1 [1]: A (100)
Insecticidal effect, Test Example 2 [2]: B (99-90)
Insecticidal effect, Test Example 3 [3]: C (89-80)

CC(C)NC(=O)c1c(I)cccc1C(=O)Nc1ccc(C(F)(F)C(F)(F)C(F)(F)F)cc1 [compound 350]
Insecticidal effect, Test Example 1 [1]: A (100)
Insecticidal effect, Test Example 2 [2]: A (100)
Insecticidal effect, Test Example 3 [3]: A (100)

CC(C)NC(=O)c1c(I)cccc1C(=O)Nc1ccc(C(F)(C(F)(F)F)C(F)(F)F)cc1 [compound 351]
Insecticidal effect, Test Example 1 [1]: A (100)
Insecticidal effect, Test Example 2 [2]: A (100)
Insecticidal effect, Test Example 3 [3]: A (100)

CC(C)NC(=O)c1c(I)cccc1C(=O)Nc1ccc(OC(F)(F)C(F)OC(F)(F)F)cc1 (stereo not drawn) [compound 353]
Insecticidal effect, Test Example 1 [1]: A (100)
Insecticidal effect, Test Example 2 [2]: A (100)
Insecticidal effect, Test Example 3 [3]: A (100)

CC(C)NC(=O)c1c(I)cccc1C(=O)Nc1ccc(SC(F)F)cc1 [compound 354]
Insecticidal effect, Test Example 1 [1]: A (100)
Insecticidal effect, Test Example 2 [2]: A (100)
Insecticidal effect, Test Example 3 [3]: A (100)

CC(C)NC(=O)c1c(I)cccc1C(=O)Nc1ccc(SCC(F)(F)F)cc1 [compound 355]
Insecticidal effect, Test Example 1 [1]: A (100)
Insecticidal effect, Test Example 2 [2]: C (89-80)
Insecticidal effect, Test Example 3 [3]: A (100)

CC(C)NC(=O)c1c(I)cccc1C(=O)Nc1ccc(SC(F)(F)C(F)F)cc1 [compound 356]
Insecticidal effect, Test Example 1 [1]: A (100)
Insecticidal effect, Test Example 2 [2]: A (100)
Insecticidal effect, Test Example 3 [3]: A (100)

CC(C)NC(=O)c1c(I)cccc1C(=O)Nc1ccc(F)c(F)c1 [compound 360]
Insecticidal effect, Test Example 1 [1]: A (100)
Insecticidal effect, Test Example 2 [2]: D (79-50)
Insecticidal effect, Test Example 3 [3]: A (100)

Cc1c(Cl)cccc1NC(=O)c1cccc(I)c1C(=O)NC(C)C [compound 361]
Insecticidal effect, Test Example 1 [1]: A (100)
Insecticidal effect, Test Example 2 [2]: A (100)
Insecticidal effect, Test Example 3 [3]: A (100)

Cc1cc(Cl)ccc1NC(=O)c1cccc(I)c1C(=O)NC(C)C [compound 362]
Insecticidal effect, Test Example 1 [1]: A (100)
Insecticidal effect, Test Example 2 [2]: A (100)
Insecticidal effect, Test Example 3 [3]: A (100)

Cc1ccc(Cl)cc1NC(=O)c1cccc(I)c1C(=O)NC(C)C [compound 363]
Insecticidal effect, Test Example 1 [1]: A (100)
Insecticidal effect, Test Example 2 [2]: A (100)
Insecticidal effect, Test Example 3 [3]: A (100)

Cc1ccc(NC(=O)c2cccc(I)c2C(=O)NC(C)C)c(C)c1Cl [compound 364]
Insecticidal effect, Test Example 1 [1]: A (100)
Insecticidal effect, Test Example 2 [2]: A (100)
Insecticidal effect, Test Example 3 [3]: D (79-50)

Cc1c(Cl)ccc(NC(=O)c2cccc(I)c2C(=O)NC(C)C)c1C [compound 365]
Insecticidal effect, Test Example 1 [1]: A (100)
Insecticidal effect, Test Example 2 [2]: A (100)
Insecticidal effect, Test Example 3 [3]: A (100)

Cc1cc(Br)ccc1NC(=O)c1cccc(I)c1C(=O)NC(C)C [compound 366]
Insecticidal effect, Test Example 1 [1]: A (100)
Insecticidal effect, Test Example 2 [2]: A (100)
Insecticidal effect, Test Example 3 [3]: A (100)

Cc1cc(I)ccc1NC(=O)c1cccc(I)c1C(=O)NC(C)C [compound 367]
Insecticidal effect, Test Example 1 [1]: A (100)
Insecticidal effect, Test Example 2 [2]: A (100)
Insecticidal effect, Test Example 3 [3]: A (100)

Cc1cc(F)ccc1NC(=O)c1cccc(I)c1C(=O)NC(C)C [compound 368]
Insecticidal effect, Test Example 1 [1]: A (100)
Insecticidal effect, Test Example 2 [2]: A (100)
Insecticidal effect, Test Example 3 [3]: A (100)

CC(C)NC(=O)c1c(I)cccc1C(=O)Nc1ccc(C(F)(F)F)cc1Cl [compound 369]
Insecticidal effect, Test Example 1 [1]: A (100)
Insecticidal effect, Test Example 2 [2]: A (100)
Insecticidal effect, Test Example 3 [3]: A (100)

Cc1c(NC(=O)c2cccc(I)c2C(=O)NC(C)C)cccc1C(F)(F)F [compound 370]
Insecticidal effect, Test Example 1 [1]: A (100)
Insecticidal effect, Test Example 2 [2]: A (100)
Insecticidal effect, Test Example 3 [3]: A (100)

Cc1cc(C(F)(F)F)ccc1NC(=O)c1cccc(I)c1C(=O)NC(C)C [compound 371]
Insecticidal effect, Test Example 1 [1]: A (100)
Insecticidal effect, Test Example 2 [2]: A (100)
Insecticidal effect, Test Example 3 [3]: A (100)

Cc1cc(C(F)(F)C(F)(F)F)ccc1NC(=O)c1cccc(I)c1C(=O)NC(C)C [compound 372, 3-iodo-N^1-(4-pentafluoroethyl-2-methylphenyl)-N^2-isopropyl-phthalic acid diamide]
Insecticidal effect, Test Example 1 [1]: A (100)
Insecticidal effect, Test Example 2 [2]: A (100)
Insecticidal effect, Test Example 3 [3]: A (100)

Cc1cc(C(F)(F)C(F)(F)C(F)(F)F)ccc1NC(=O)c1cccc(I)c1C(=O)NC(C)C [compound 373]
Insecticidal effect, Test Example 1 [1]: A (100)
Insecticidal effect, Test Example 2 [2]: A (100)
Insecticidal effect, Test Example 3 [3]: A (100)

— patent publication US6362369B1, “Phthalic acid diamide derivatives fluorine-containing aniline compounds as starting material, agricultural and horticultural insecticides, and a method for application of the insecticides” (Nihon Nohyaku Co., Ltd., priority 1997, dated 2002)
